According to the supplement of paper PMC10307832:

Experiments:
Test in all cases: relative viability (nuclei count vs DMSO), 5 days (fraction); higher = more cells survive
AZ505 + Phenformin = compound: C1CCC(CC1)N(CCNCCC2=C3C(=C(C=C2)O)NC(=O)CO3)C(=O)CCNCCC4=CC(=C(C=C4)Cl)Cl [AZ505] + N=C(N)NC(=N)NCCc1ccccc1 [Phenformin] (partner 250 µM)
Outline: (§1)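 Relative viability divides the nuclei count in treated wells by that in vehicle wells. Lung cancer cell lines were seeded in 1536-well plates, dosed by pin tool the next day, and fixed and stained after 5 days in one step with final 0.05% Triton X-100, 1% formaldehyde and 1 ug/ml Hoechst. Dosing was a single drug or a fixed anchor-drug dose plus five library-drug doses (not always all listed) in √10 steps, and values are medians of duplicate plates imaged at 4×.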

Dactolisib + Luminespib = compound: Cn1c(=O)n(-c2ccc(C(C)(C)C#N)cc2)c2c3cc(-c4cnc5ccccc5c4)ccc3ncc21 [Dactolisib] + CCNC(=O)c1noc(-c2cc(C(C)C)c(O)cc2O)c1-c1ccc(CN2CCOCC2)cc1 [Luminespib] (partner 0.01 µM)
Outline: as §1

AZ505 + Linsitinib = compound: C1CCC(CC1)N(CCNCCC2=C3C(=C(C=C2)O)NC(=O)CO3)C(=O)CCNCCC4=CC(=C(C=C4)Cl)Cl [AZ505] + C[C@]1(O)C[C@@H](c2nc(-c3ccc4ccc(-c5ccccc5)nc4c3)c3c(N)nccn32)C1 [Linsitinib] (partner 1 µM)
Outline: as §1

AZ505 + OSI-027 = compound: C1CCC(CC1)N(CCNCCC2=C3C(=C(C=C2)O)NC(=O)CO3)C(=O)CCNCCC4=CC(=C(C=C4)Cl)Cl [AZ505] + COc1cccc2cc(-c3nc([C@H]4CC[C@H](C(=O)O)CC4)n4ncnc(N)c34)[nH]c12 [OSI-027] (partner 0.5 µM)
Outline: as §1

| Cell Line | relative viability (AZ505 + Phenformin; first compound 0.08 µM) | relative viability (AZ505 + Phenformin; first compound 0.8 µM) | relative viability (AZ505 + Phenformin; first compound 2.53 µM) | relative viability (AZ505 + Phenformin; first compound 8 µM) | relative viability (Dactolisib + Luminespib; first compound 0.002 µM) | relative viability (Dactolisib + Luminespib; first compound 0.006325 µM) | relative viability (Dactolisib + Luminespib; first compound 0.02 µM) | relative viability (Dactolisib + Luminespib; first compound 0.06325 µM) | relative viability (Dactolisib + Luminespib; first compound 0.2 µM) | relative viability (AZ505 + Linsitinib; first compound 0.08 µM) | relative viability (AZ505 + Linsitinib; first compound 0.253 µM) | relative viability (AZ505 + Linsitinib; first compound 0.8 µM) | relative viability (AZ505 + Linsitinib; first compound 2.53 µM) | relative viability (AZ505 + Linsitinib; first compound 8 µM) | relative viability (AZ505 + OSI-027; first compound 0.08 µM) | relative viability (AZ505 + OSI-027; first compound 0.8 µM) | relative viability (AZ505 + OSI-027; first compound 2.53 µM) | relative viability (AZ505 + OSI-027; first compound 8 µM) | relative viability (AZ505 + Phenformin; first compound 0.253 µM) | relative viability (AZ505 + OSI-027; first compound 0.253 µM) |
| --- | --- | --- | --- | --- | --- | --- | --- | --- | --- | --- | --- | --- | --- | --- | --- | --- | --- | --- | --- | --- |
| NCI-H1792 | 0.302 | 0.31 | 0.417 | 0.263 | 0.259 | 0.403 | 0.404 | 0.142 | 0.11 | 0.552 | 0.652 | 0.424 | 0.509 | 0.577 | 0.712 | 0.687 | 0.718 | 0.739 |  |  |
| LCLC-97TM1 | 0.386 | 0.416 | 0.428 | 0.462 | 0.753 | 0.754 | 0.661 | 0.46 | 0.213 | 0.257 | 0.2 | 0.16 | 0.201 | 0.199 | 0.389 | 0.495 | 0.395 | 0.644 | 0.445 | 0.335 |
| NCI-H1703 |  |  |  |  |  |  |  |  |  | 0.635 | 0.588 | 1.17 | 0.997 | 0.853 |  |  |  |  |  |  |
| LCLC-103H | 0.321 | 0.318 | 0.381 | 0.378 | 1.03 | 0.905 | 0.844 | 0.483 | 0.444 | 1.01 | 0.807 | 1.03 | 1.06 | 1.07 | 0.447 | 0.447 | 0.496 | 0.476 | 0.292 | 0.472 |
| ChaGo-K-1 | 0.486 | 0.5 | 0.514 | 0.458 | 0.622 | 0.562 | 0.582 | 0.39 | 0.463 |  |  |  |  |  | 0.53 | 0.593 | 0.699 | 0.537 | 0.521 | 0.448 |
